Assay results: the NIST ThermoML archive (doi:10.1016/j.jct.2008.07.009)
Numbers after ± are expanded uncertainties.

Experiment: xn = mol fraction of the nth substance listed
Details: 101 kPa, Liquid, Vibrating tube method

CC(=O)N1CCOCC1 [4-acetylmorpholine] + Cc1cc(C)cc(C)c1
mass density [kg/m3]
Details	293.15 K	303.15 K	313.15 K	323.15 K	333.15 K	343.15 K
x2 = 0.0654	1094.6 ± 6.1	1086.8 ± 6.1	1077.7 ± 6.1	1069.3 ± 6.1	1060.8 ± 6.1	1052.2 ± 6
x2 = 0.1128	1081.2 ± 6	1073.4 ± 6	1063.8 ± 6	1055.4 ± 6	1046.9 ± 6	1038.5 ± 6
x2 = 0.1763	1063.5 ± 6	1055.7 ± 6	1045.7 ± 6	1037.3 ± 6	1028.9 ± 6	1020.4 ± 6
x2 = 0.2254	1050.2 ± 6	1042.3 ± 6	1032 ± 6	1023.5 ± 6	1015.1 ± 6	1006.7 ± 6
x2 = 0.2845	1034.5 ± 6	1026.5 ± 6	1015.8 ± 6	1007.4 ± 6	999 ± 6	990.6 ± 6
x2 = 0.3241	1024.2 ± 6	1016.2 ± 6	1005.2 ± 6	996.8 ± 6	988.4 ± 6	980 ± 6
x2 = 0.3837	1008.9 ± 6	1000.9 ± 6	989.5 ± 6	981 ± 6	972.7 ± 6	964.3 ± 6
x2 = 0.4266	998.1 ± 6	990.1 ± 6	978.3 ± 6	969.9 ± 6	961.6 ± 6	953.2 ± 6
x2 = 0.4978	980.4 ± 6	972.3 ± 6	960.2 ± 6	951.9 ± 6	943.5 ± 6	935.2 ± 6
x2 = 0.5436	969.2 ± 6	961.1 ± 6	948.8 ± 6	940.4 ± 6	932.1 ± 6	923.8 ± 6
x2 = 0.6116	952.8 ± 6	944.8 ± 6	932.1 ± 6	923.9 ± 6	915.6 ± 6	907.3 ± 6
x2 = 0.6984	932.5 ± 6	924.4 ± 6	911.4 ± 6	903.1 ± 6	894.9 ± 6	886.8 ± 6
x2 = 0.7452	921.6 ± 6	913.6 ± 6	900.4 ± 6	892.2 ± 6	884 ± 6	875.9 ± 6
x2 = 0.7944	910.4 ± 6	902.3 ± 6	888.9 ± 6	880.8 ± 6	872.7 ± 6	864.6 ± 6
x2 = 0.8541	897 ± 6	889 ± 6	875.4 ± 6	867.2 ± 6	859.1 ± 6	851 ± 6
x2 = 0.8932	888.3 ± 6	880.2 ± 6	866.5 ± 6	858.4 ± 6	850.3 ± 6	842.2 ± 6
x2 = 0.9423	877.5 ± 6	869.5 ± 6	855.6 ± 6	847.5 ± 6	839.4 ± 6	831.3 ± 6
x2 = 0.9833	868.7 ± 6	860.6 ± 6	846.5 ± 6	838.5 ± 6	830.4 ± 6	822.3 ± 6

CC(=O)N1CCOCC1 [4-acetylmorpholine] + CCc1ccccc1
mass density [kg/m3]
Details	293.15 K	303.15 K	313.15 K	323.15 K	333.15 K	343.15 K
x2 = 0.0456	1102.4 ± 6.1	1094.5 ± 6.1	1085.9 ± 6.1	1077.3 ± 6.1	1068.9 ± 6.1	1060.3 ± 6.1
x2 = 0.1256	1082.6 ± 6	1074.7 ± 6	1066.2 ± 6	1057.7 ± 6	1049.2 ± 6	1040.6 ± 6
x2 = 0.1853	1068 ± 6	1060 ± 6	1051.5 ± 6	1042.9 ± 6	1034.3 ± 6	1025.7 ± 6
x2 = 0.2457	1053.2 ± 6	1045.2 ± 6	1036.6 ± 6	1027.9 ± 6	1019.4 ± 6	1010.6 ± 6
x2 = 0.2984	1040.5 ± 6	1032.4 ± 6	1023.7 ± 6	1015 ± 6	1006.3 ± 6	997.5 ± 6
x2 = 0.3486	1028.3 ± 6	1020.1 ± 6	1011.4 ± 6	1002.6 ± 6	993.8 ± 6	985 ± 6
x2 = 0.3899	1018.3 ± 6	1010 ± 6	1001.2 ± 6	992.4 ± 6	983.6 ± 6	974.7 ± 6
x2 = 0.4452	1004.8 ± 6	996.5 ± 6	987.7 ± 6	978.9 ± 6	969.9 ± 6	960.9 ± 6
x2 = 0.4843	995.3 ± 6	986.9 ± 6	978 ± 6	969.2 ± 6	960.2 ± 6	951.2 ± 6
x2 = 0.5433	980.8 ± 6	972.3 ± 6	963.5 ± 6	954.6 ± 6	945.6 ± 6	936.6 ± 6
x2 = 0.5894	969.5 ± 6	961 ± 6	952.1 ± 6	943.2 ± 6	934.2 ± 6	925.2 ± 6
x2 = 0.6555	953.2 ± 6	944.7 ± 6	935.8 ± 6	926.9 ± 6	917.8 ± 6	908.8 ± 6
x2 = 0.6983	942.6 ± 6	934 ± 6	925.1 ± 6	916.2 ± 6	907.2 ± 6	898.3 ± 6
x2 = 0.7452	931 ± 6	922.4 ± 6	913.5 ± 6	904.6 ± 6	895.6 ± 6	886.6 ± 6
x2 = 0.7984	917.7 ± 6	909 ± 6	900.2 ± 6	891.2 ± 6	882.3 ± 6	873.4 ± 6
x2 = 0.8422	906.7 ± 6	898 ± 6	889.3 ± 6	880.4 ± 6	871.4 ± 6	862.4 ± 6
x2 = 0.9328	884.2 ± 6	875.5 ± 6	866.7 ± 6	857.8 ± 6	848.7 ± 6	839.7 ± 6
x2 = 0.9784	872.8 ± 6	864.1 ± 6	855.2 ± 6	846.2 ± 6	837.1 ± 6	828 ± 6

CC(=O)N1CCOCC1 [4-acetylmorpholine] + Cc1ccccc1
mass density [kg/m3]
Details	293.15 K	303.15 K	313.15 K	323.15 K	333.15 K	343.15 K
x2 = 0.0498	1104.1 ± 6.1	1096.4 ± 6.1	1087.8 ± 6.1	1079.4 ± 6.1	1071.2 ± 6.1	1063.2 ± 6.1
x2 = 0.0975	1094.3 ± 6.1	1086.5 ± 6.1	1077.8 ± 6	1069.6 ± 6	1061.4 ± 6	1053.3 ± 6
x2 = 0.1453	1084 ± 6	1076.5 ± 6	1068.2 ± 6	1059.9 ± 6	1051.6 ± 6	1043.4 ± 6
x2 = 0.2109	1070.1 ± 6	1062.5 ± 6	1054 ± 6	1045.6 ± 6	1036.8 ± 6	1029.2 ± 6
x2 = 0.2873	1053.3 ± 6	1045.4 ± 6	1037.1 ± 6	1028.6 ± 6	1020.2 ± 6	1012 ± 6
x2 = 0.3276	1044.3 ± 6	1036.5 ± 6	1028.1 ± 6	1019.5 ± 6	1011 ± 6	1002.5 ± 6
x2 = 0.3865	1030.8 ± 6	1022.8 ± 6	1014.6 ± 6	1005.8 ± 6	997.2 ± 6	988.6 ± 6
x2 = 0.4536	1015.1 ± 6	1007 ± 6	998.7 ± 6	989.8 ± 6	981.2 ± 6	972.2 ± 6
x2 = 0.4953	1005.1 ± 6	996.9 ± 6	988.7 ± 6	979.7 ± 6	970.8 ± 6	962.1 ± 6
x2 = 0.5235	998.4 ± 6	990 ± 6	981.7 ± 6	972.7 ± 6	964.1 ± 6	954.5 ± 6
x2 = 0.5641	988.2 ± 6	979.8 ± 6	971.6 ± 6	962.5 ± 6	953.8 ± 6	944.9 ± 6
x2 = 0.6033	978.3 ± 6	969.9 ± 6	961.7 ± 6	952.5 ± 6	943.8 ± 6	935 ± 6
x2 = 0.6844	957.3 ± 6	949 ± 6	940.7 ± 6	931.5 ± 6	922.7 ± 6	913.9 ± 6
x2 = 0.7562	937.8 ± 6	929.6 ± 6	921.3 ± 6	912.1 ± 6	903.2 ± 6	894.7 ± 6
x2 = 0.8126	922.2 ± 6	913.7 ± 6	905.5 ± 6	896.2 ± 6	887.4 ± 6	879.3 ± 6
x2 = 0.8843	901.8 ± 6	893.2 ± 6	885 ± 6	875.6 ± 6	866.8 ± 6	857.9 ± 6
x2 = 0.9225	890.5 ± 6	881.8 ± 6	873.5 ± 6	864.1 ± 6	855.3 ± 6	846.4 ± 6
x2 = 0.9832	872.3 ± 6	863.3 ± 6	855.2 ± 6	845.9 ± 6	837.1 ± 6	828.2 ± 6

CC(=O)N1CCOCC1 [4-acetylmorpholine] + c1ccccc1
mass density [kg/m3]
Details	293.15 K	303.15 K	313.15 K	323.15 K	333.15 K	343.15 K
x2 = 0.0546	1104.6 ± 6.1	1096.7 ± 6.1	1088.2 ± 6.1	1079.6 ± 6.1	1071 ± 6.1	1062.4 ± 6.1
x2 = 0.1127	1094.9 ± 6.1	1086.8 ± 6.1	1078.1 ± 6	1069.3 ± 6	1060.6 ± 6	1051.8 ± 6
x2 = 0.1568	1087.2 ± 6	1079 ± 6	1070.2 ± 6	1061.2 ± 6	1052.4 ± 6	1043.5 ± 6
x2 = 0.2099	1078 ± 6	1069.6 ± 6	1060.6 ± 6	1051.3 ± 6	1042.3 ± 6	1033.2 ± 6
x2 = 0.2673	1067.5 ± 6	1058.9 ± 6	1049.8 ± 6	1040.5 ± 6	1031.4 ± 6	1022.1 ± 6
x2 = 0.3128	1059 ± 6	1050.2 ± 6	1040.9 ± 6	1031.6 ± 6	1022.2 ± 6	1012.9 ± 6
x2 = 0.3564	1050.6 ± 6	1041.7 ± 6	1032.3 ± 6	1022.8 ± 6	1013.4 ± 6	1003.9 ± 6
x2 = 0.4056	1040.8 ± 6	1031.7 ± 6	1022.2 ± 6	1012.5 ± 6	1002.9 ± 6	993.3 ± 6
x2 = 0.4562	1030.1 ± 6	1020.8 ± 6	1011.2 ± 6	1001.4 ± 6	991.7 ± 6	981.8 ± 6
x2 = 0.5039	1019.5 ± 6	1010.1 ± 6	1000.3 ± 6	990.4 ± 6	980.6 ± 6	970.6 ± 6
x2 = 0.5683	1004.5 ± 6	994.9 ± 6	984.9 ± 6	974.9 ± 6	964.9 ± 6	954.8 ± 6
x2 = 0.6138	993.3 ± 6	983.5 ± 6	973.5 ± 6	963.4 ± 6	953.2 ± 6	942.6 ± 6
x2 = 0.6866	974.4 ± 6	964.5 ± 6	954.3 ± 6	943.9 ± 6	933.6 ± 6	923.3 ± 6
x2 = 0.7437	958.7 ± 6	948.6 ± 6	938.3 ± 6	927.7 ± 6	917.6 ± 6	907.1 ± 6
x2 = 0.8033	941.3 ± 6	931.1 ± 6	920.7 ± 6	910.2 ± 6	899.7 ± 6	889.2 ± 6
x2 = 0.8659	922.4 ± 6	912.1 ± 6	901.6 ± 6	891 ± 6	880.5 ± 6	869.8 ± 6
x2 = 0.9154	906.8 ± 6	896.3 ± 6	885.8 ± 6	875.2 ± 6	864.6 ± 6	853.8 ± 6
x2 = 0.9687	889.4 ± 6	878.9 ± 6	868.4 ± 6	857.7 ± 6	847 ± 6	836.3 ± 6
